This note sets out measurements from patent US20150141274A1, “Methods and Compositions for Activity Dependent Transcriptome Profiling” (The Rockefeller University, priority 2012, published 2015).

One assay relates to pS6 and c-fos. The assay is classed as in vivo, mouse. Particulars: intraperitoneal: cocaine 30 mg/kg 60 min, kainate 12.5 mg/kg 120 min, haloperidol 2 mg/kg 30 min, olanzapine 20 mg/kg 120 min, clozapine 10 mg/kg 45 min; ghrelin. The protocol:
(§1) Wild-type male C57B6/J mice from Jackson laboratories were maintained on a 8 pm:8 am light-dark schedule and were 9-13 weeks old at the time of sacrifice. All dissections were performed between noon and 2 pm except as noted. For osmotic stimulation experiments, animals were given an intraperitoneal injection of 2M NaCl (350 μL), water was removed from the cage, and mice were sacrificed 120-140 min later. For fasting experiments, animals were transferred to a new cage without food at 5 pm and then sacrificed at 8 am the following morning. Control mice were fed ad libitum and sacrificed at the same time. For ghrelin experiments, animals were given an intraperitoneal injection of ghrelin (66 μg, Tocris), food was removed from the cage, and animals were dissected 70 min later. For scheduled feeding, animals were allowed access to food between noon and 3 pm each day, and then sacrificed between 1:45 and 2 pm after a minimum of 10 days on this schedule.

A further assay concerns pS6. The assay is described as follows: Hypothalamic immunostaining for pS6. The assay is classed as in vivo, mouse. Here is the method: as §1, with “For fasting experiments, animals were transferred to a new cage without food at 5 pm and then sacrificed at 8 am the following morning.” left out
Mice were sacrified at the indicated times by isoflurane anesthesia followed by transcardial perfusion with PBS and then 10% formalin. Brains were dissected, incubated in 10% formalin overnight at 4° C., and 40 μm sections were prepared on a vibratome. Free floating sections were blocked for 1 h at room temperature in buffer E (PBS, 0.1% Triton, 2% goat serum, 3% BSA), and then stained overnight at 4° C. with primary antibodies at the indicated concentrations. For pS6 244 staining, the pS6 240/244 polyclonal antibody (Cell Signaling, #2215) was combined with the 3P peptide (250 nM final concentration). […]
Images were acquired using an LSM510 laser scanning confocal microscope. pS6 was quantified in specific neuronal populations as follows. […] The surfaces corresponding to each labelled cell in the field (e.g. each POMC cell) were reconstructed using Imaris software (Bitplane), and the mean intensity in the pS6 channel within the volume bounded by the surface of each labelled cell was recorded. […] In cases where the absolute number of pS6 positive cells within an anatomic region was desired (e.g. Pdyn neurons in the DMH), the number of pS6 positive and negative cells was counted manually.

The subject of assay [1] is hypothalamus. The experiment in a line: Phosphorylated ribosome profiling (Taqman array) of hypothalamus after ghrelin injection. The assay is classed as in vivo, mouse. Particulars: ghrelin 66 μg intraperitoneal, 70 min. The protocol:
(§2) Mice were sacrificed by cervical dislocation. […] Homogenates were transferred to a microcentrifuge tube and clarified at 2000×g for 10 min at 4° C. […] This solution was mixed and then clarified at 17000×g for 10 min at 4° C. The resulting high-speed supernatant was transferred to a new tube, and 20 μL of a 0.05 mM stock solution of 3P peptide was added. A 20 μL aliquot of this solution was removed, transferred to a new tube containing 350 μL buffer RLT (Qiagen), and stored at −80° C. for purification as input RNA. The remainder was used for immunoprecipitation.
(§3) Immunoprecipitations were allowed to proceed 10 min at 4° C. […] During the third wash the beads were transferred to a new tube and allowed to incubate at RT for 10 min. […] RNA assessed using an Agilent 2100 bioanalyzer.
Wild-type male C57B6/J mice from Jackson laboratories were maintained on a 8 pm:8 am light-dark schedule and were 9-13 weeks old at the time of sacrifice. All dissections were performed between noon and 2 pm except as noted. […]
Taqman probes were designed and ordered for quantification of each of the 225 genes described in Table 4. Probes were distributed to 96-well plates in duplicate, cDNA was prepared using the Quantitect RT kit (Qiagen), and reactions were run using the Taqman Gene Expression Master Mix (ABI) on an Applied Biosystems 7900HT system. For each experiment (stimulus or control), the abundance of each gene in the input RNA and in the pS6 immunoprecipitated RNA was measured in duplicate. The mean RNA abundance was determined, normalized to an rpL27 probe that was present in every plate, and the ratio (IP/Input) was calculated. The experiment was repeated multiple times for each stimulus or control, these values were averaged, and the differential enrichment was calculated (ratio of (IP/Input) stimulus over control). Note that the differential enrichment was calculated because the neuronal markers that become enriched or depleted specifically in response to the stimulus was of interest. […]
A general note: Real-time PCR tracks product formation cycle by cycle.

Another assay concerns the target T1, K-opioid receptor (KOR) (Mus musculus, UniProt P33534).
T1 construct: An intraperitoneal injection of either a selective KOR antagonist (JDTic) or vehicle was administered to mice; from tissue; host or cells: whole animal (wild-type male C57B6/J mice), i.p. or intracerebroventricular dosing
The assay is described as follows: Food intake and body weight after treatment with KOR antagonists during scheduled or ad libitum feeding. The assay is classed as in vivo. The protocol: as §1
JDTic was either delivered by intraperitoneal injection (10 mg/kg) or was reconstituted in PBS to a concentration of 1 mg/mL and 5 ul was delivered via Hamilton syringe into the lateral ventricle using coordinates: L/M 1.0 mm from Bregma, A/P −0.4 mm from Bregma and 2.5 mm beneath the cortex. Norbinaltorphimine was delivered at the same dose and coordinates as described above.

Assay [2] concerns hypothalamus. The experiment in a line: Phosphorylated ribosome profiling (Taqman array) of hypothalamus after salt challenge. The format is in vivo, mouse. Particulars: 2M NaCl 350 μL intraperitoneal, 120-140 min; 3P peptide. The protocol: as §2, §3
as §1, with “For fasting experiments, animals were transferred to a new cage without food at 5 pm and then sacrificed at 8 am the following morning.” left out
Taqman probes were designed and ordered for quantification of each of the 225 genes described in Table 4. Probes were distributed to 96-well plates in duplicate, cDNA was prepared using the Quantitect RT kit (Qiagen), and reactions were run using the Taqman Gene Expression Master Mix (ABI) on an Applied Biosystems 7900HT system. For each experiment (stimulus or control), the abundance of each gene in the input RNA and in the pS6 immunoprecipitated RNA was measured in duplicate. The mean RNA abundance was determined, normalized to an rpL27 probe that was present in every plate, and the ratio (IP/Input) was calculated. The experiment was repeated multiple times for each stimulus or control, these values were averaged, and the differential enrichment was calculated (ratio of (IP/Input) stimulus over control). Note that the differential enrichment was calculated because the neuronal markers that become enriched or depleted specifically in response to the stimulus was of interest. Normalization to the control group accounts for the fact that each neural marker has a somewhat different enrichment at baseline, reflecting the fact that each cell-population has somewhat different level of basal pS6. Follow-up analysis focused in every case on the most highly enriched genes in the experiment, which were validated directly by histology.

Assay [3] concerns hypothalamus. Particulars: 2 M NaCl 15 μL/g intraperitoneal, 2 hours; pS6 240/244 antibody without 3P peptide.
Procedure: Magnetic beads were loaded by incubating 150 μL of Protein A Dynabeads (Invitrogen) with 4 μg of pS6 antibody in Buffer A (10 mM HEPES [pH 7.4], 150 mM KCl, 5 mM MgCl2, 1% NP40, 0.05% IgG-free BSA). Loading was allowed to proceed at 4° C. for a minimum of 1 day. Beads were washed three times with Buffer A immediately before use.
Mice were sacrificed by cervical dislocation. The hypothalamus was rapidly dissected in Buffer B on ice (1×HBSS, 4 mM NaHCO3, 2.5 mM HEPES [pH 7.4], 35 mM Glucose, 100 μg/mL cycloheximide). […] Samples were homogenized three times at 250 rpm and nine times at 750 rpm on a variable-speed homogenizer (Glas-Col) at 4° C. Homogenates were transferred to a microcentrifuge tube and clarified for 10 minutes at 4000 rpm at 4° C. The supernatant was then removed and transferred to a new tube on ice. […]
Immunoprecipitations were allowed to proceed for 30-60 min at 4° C. […] RNA quality was quantified using a NanoDrop spectrophotometer and the quality assessed using an Agilent 2100 bioanalyzer. […] For Taqman analysis, cDNA was prepared using the Sensiscript RT kit (Qiagen) and analyzed using an Applied Biosystems 7900HT system. […]
The ratio of the signal intensities for each gene in the IP (immunoprecipitation) and input was calculated for each experiment, these values were averaged across replicates, and all genes were sorted according to their fold-enrichment.
Assay [4] has as its target phosphorylated ribosomal protein S6 (mouse), in ribosomes of cell lysates (Mus musculus) (UniProt P62754). The assay is described as follows: immunoprecipitation of ribosomes from MEF lysates, recovered RNA quantified by Bioanalyzer.
For assay [5] the target is unchanged. The experiment in a line: immunoprecipitation of ribosomes from MEF lysates, recovered RNA quantified.
The mark [6] stands for this setting: ad libitum fed animals, intraperitoneal injection.
The mark [7] stands for this setting: scheduled feeding, intraperitoneal injection 10 mg/kg, single dose.

No end group written: not given here.

T1 sequence (P33534 whole entry): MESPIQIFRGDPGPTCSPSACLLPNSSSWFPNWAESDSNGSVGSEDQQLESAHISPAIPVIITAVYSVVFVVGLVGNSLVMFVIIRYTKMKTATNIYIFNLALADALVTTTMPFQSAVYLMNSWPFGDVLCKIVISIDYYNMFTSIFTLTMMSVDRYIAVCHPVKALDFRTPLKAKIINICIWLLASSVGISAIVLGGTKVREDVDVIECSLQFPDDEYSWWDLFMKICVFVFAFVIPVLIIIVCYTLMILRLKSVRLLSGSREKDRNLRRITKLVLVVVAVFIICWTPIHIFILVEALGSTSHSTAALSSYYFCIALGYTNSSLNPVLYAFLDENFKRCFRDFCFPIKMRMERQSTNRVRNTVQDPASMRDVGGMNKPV

Consider “ghrelin (GSSFLSPEHQRVQQRKESKKPPAKLQPR; not fully specified (residue 3); ends and bridges not checked; UniProt Q9UBU3 24-51, looked up) [the hormone ghrelin (Tocris)]”, for which the “co-localization of pS6 and c-fos in brain regions” value (“co-localization of pS6 and c-fos” below) in the assay on pS6 and c-fos is “extensive co-localization of c-fos and pS6”. Also, in the assay on pS6 (ghrelin IP injection, 1 h), the “pS6 levels in the compact part of the DMH” value is reported as “did not increase” and the “pS6 staining in the Arc” value is listed as “induced strong pS6”. In the assay on hypothalamus [1], the “enrichment of AgRP in pS6 immunoprecipitates relative to controls” value came out at 27 fold, the “enrichment of NPY in pS6 immunoprecipitates relative to controls” value amounted to 21 fold and the “enrichment of the ghrelin receptor in pS6 immunoprecipitates relative to controls” value is reported as 7.1 fold.
As to `O=C(CCCN1CCC(O)(c2ccc(Cl)cc2)CC1)c1ccc(F)cc1` [haloperidol], the “co-localization of pS6 and c-fos” value with pS6 and c-fos is “induce co-localization of pS6 and c-fos”.
In the case of `Oc1ccc2c3c1O[C@H]1c4[nH]c5c(c4C[C@@]4(O)[C@@H](C2)N(CC2CC2)CC[C@]314)C[C@@]1(O)[C@H]2Cc3ccc(O)c4c3[C@@]1(CCN2CC1CC1)[C@H]5O4` [norbinaltorphimine], the “increase in food intake” value at K-opioid receptor (KOR) (scheduled feeding, intracerebroventricular injection) is reported as “more than 50%”.
Take JDTic: at K-opioid receptor (KOR) (setting [6]), the body weight entry is reported as “no impact” and the food intake result is “no impact”. For the same compound, at K-opioid receptor (KOR) (setting [7]), the “body weight relative to the control group” value is on record as “more rapid regain” and the “food intake relative to the control group” value is “increased more rapidly”.
`[Cl-].[Na+]` [salt, NaCl]: the “pS6 staining in PVN, SON and median eminence of the hypothalamus” value in the assay with pS6 (salt challenge, 2M NaCl versus vehicle (PBS), pS6 244 staining) was “induced an increase in pS6”. Also, in the assay with hypothalamus [2], the “enrichment of Cxcl1 in pS6 immunoprecipitates, salt challenged relative to controls” value came out at 13 fold; the “enrichment of Fezf2 in pS6 immunoprecipitates, salt challenged relative to controls” value was found to be 5.5 fold; the “enrichment of FosB in pS6 immunoprecipitates, salt challenged relative to controls” value was 38 fold; the “enrichment of Nhlh2 in pS6 immunoprecipitates, salt challenged relative to controls” value turned out to be 7.3 fold. Besides, in the assay with hypothalamus [2], the “enrichment of Sim1 in pS6 immunoprecipitates, salt challenged relative to controls” value was 4.0 fold; the “enrichment of corticotropin releasing hormone (Crh) in pS6 immunoprecipitates, salt challenged relative to controls” value is listed as 10 fold; the “enrichment of galanin (Gal) in pS6 immunoprecipitates, salt challenged relative to controls” value is listed as 4.6 fold; the “enrichment of oxytocin (Oxt) in pS6 immunoprecipitates, salt challenged relative to controls” value came out at 14 fold. In addition, in the assay on hypothalamus [2], the “enrichment of prodynorphin (Pdyn) in pS6 immunoprecipitates, salt challenged relative to controls” value was 3.4 fold; the “enrichment of relaxin-1 (Rln1) in pS6 immunoprecipitates, salt challenged relative to controls” value turned out to be 6.1 fold; the “enrichment of somatostatin (Sst) in pS6 immunoprecipitates, salt challenged relative to controls” value is listed as 3.1 fold; the “enrichment of urocortin-3 (Ucn3) in pS6 immunoprecipitates, salt challenged relative to controls” value amounted to 5.3 fold. Moreover, in the assay on hypothalamus [2], the “enrichment of vasopressin (Avp) in pS6 immunoprecipitates, salt challenged relative to controls” value amounted to 49 fold. For the same compound, in the assay on hypothalamus [3], the “enrichment of Avp in pS6 IPs from salt challenged animals relative to controls, by Taqman” value is given as 7.9 fold.
`C=C(C)[C@H]1CN[C@H](C(=O)O)[C@H]1CC(=O)O` [kainate]: the “co-localization of pS6 and c-fos” value in the assay with pS6 and c-fos was “induce co-localization of pS6 and c-fos”.
Consider “rabbit anti-pS6 240/244 polyclonal antibody (Cell Signaling #2215)”, for which the fold more RNA isolated in immunoprecipitate, wild-type MEFs against S6^S5A controls in assay [4] was determined as 100 fold. The fold more RNA associated with immunoprecipitate, wild-type MEFs against S6S5A cells in assay [5] is 100 fold.
